Results on 33 compounds are retold here after patent US20160075682A1, “INHIBITORS OF NICOTINAMIDE PHOSPHORIBOSYLTRANSFERASE, COMPOSITIONS, PRODUCTS AND USES THEREOF” (UNIVERSITÀ DEGLI STUDI DEL PIEMONTE ORIENTALE "AMEDEO …, priority 2013, published 2016).

For data set [1], the system named is SH-SY5Y, HeLa. Put plainly: MTT cell proliferation assay and trypan blue count (cell viability). The following applies: cells treated for 48 and 72 hours; read-out: IC50 values (inhibition of cellular proliferation, MTT assay and trypan blue assay). Type of data set: cell-based. As to the method:
Cell based assays were used to evaluate the possible cytotoxic effects of some compounds. To measure cytotoxic effects two different methods were used, a MTT cell proliferation assay and trypan blue count.
The Trypan blue assay is used to determine the number of viable cells present in a cell suspension. […] Briefly, 8×10^5 cells (SH-SY5Y, HeLa; obtained from ATCC, LGC standards, Sesto San Giovanni) were seeded in 24-well plates and treated for 48 and 72 hours. After the treatments, cells were stained with trypan blue and counted.
To analyze cell viability was used the colorimetric 3-(4,5-dimethylthiazol-2-yl)-2,5-diphenyltetrazolium bromide (MTT) method. The assay is based on the cleavage of the yellow tetrazolium salt MTT to purple formazan crystals by metabolic active cells. Since reduction of MTT can only occur in metabolically active cells, the level of activity is a measure of the viability of cells and conversely the cytotoxic effects of various treatments. Briefly, 8×10^5 cells (SH-SY5Y, code number CRL-2266; and HeLa, code number CCL-2) were seeded in 24-well plates and treated for 48 and 72 hours. Compounds were dissolved in DMSO and were added to the cells to give a final DMSO concentration no greater than 0.5%. Cells were washed once in Locke buffer and 300 μl of MTT (250 μg/ml in Locke buffer) were added before returning the cells to the incubator for 1 h to allow the formation of the purple formazan crystals. After 1 h, 600 μl of isopropanol/0.1 M HCl were added to each well, and the absorbance was read at 570 nm in a plate reader (Victor3V, PerkinElmer Life Sciences). For some compounds a dose response curve and IC50 for the effects on cell viability and proliferation were calculated. Cell lines used were originally purchased from ATCC (LGC standards. Sesto San Giovanni).
To evaluate the ability of each compound to inhibit cellular proliferation, cells were seeded in 24-well plates and treated for 48 and 72 hours. After the treatments the MTT assay and trypan blue assay were performed.
In general terms: Tetrazolium assays rely on reduction of a dye to a coloured formazan, in cell work by metabolically active cells.

The target of data set [2] is T1, NAMPT (Homo sapiens, UniProt P43490).
T1 construct: endogenous in cells; host or cells: SH-SY5Y and HeLa
T1 sequence (P43490 whole entry): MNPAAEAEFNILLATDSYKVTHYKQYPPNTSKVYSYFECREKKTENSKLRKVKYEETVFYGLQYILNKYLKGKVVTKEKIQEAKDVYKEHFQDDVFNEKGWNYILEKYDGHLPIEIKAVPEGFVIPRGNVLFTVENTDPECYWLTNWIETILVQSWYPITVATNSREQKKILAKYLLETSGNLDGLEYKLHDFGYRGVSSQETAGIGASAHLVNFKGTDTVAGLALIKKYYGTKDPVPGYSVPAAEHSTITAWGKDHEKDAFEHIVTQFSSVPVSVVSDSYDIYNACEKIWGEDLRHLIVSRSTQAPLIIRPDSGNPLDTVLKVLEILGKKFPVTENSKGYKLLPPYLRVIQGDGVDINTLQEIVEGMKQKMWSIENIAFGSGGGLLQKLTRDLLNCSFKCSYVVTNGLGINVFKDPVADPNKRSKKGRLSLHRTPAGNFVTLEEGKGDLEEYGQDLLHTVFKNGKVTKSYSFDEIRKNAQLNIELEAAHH
Put plainly: Direct inhibition of NAMPT enzymatic activity (Cyclex NAMPT colorimetric Assay Kit). The format is biochemical. The conditions noted are these: as assessed with a cycling assay. As to the method:
Determination of the direct activity of compounds on NAMPT was performed using a commercial kit, Cyclex NAMPT colorimetric Assay Kit.

The compound `O=C(Nc1ccccc1-c1ccccc1)OCCc1ccc(Cn2cc(-c3cccnc3)nn2)cc1` [4-((4-(pyridin-3-yl)-1H-1,2,3-triazol-1-yl)methyl)phenethyl[1,1′-biphenyl]-2-ylcarbamate] showed a melting point of 131 to 132 °C. The IC50 in data set [1] is less than 0.3 µM.
As for `NC(=O)c1ccccc1-c1ccccc1C(=O)NCCCCCCCn1cc(-c2cccnc2)nn1` [N^2-(7-(4-(pyridin-3-yl)-1H-1,2,3-triazol-1-yl)heptyl)-[1,1′-biphenyl]-2,2′-dicarboxamide], the melting point was in the range of 100 to 101 °C.
On to `Cc1ccccc1-c1ccccc1C(=O)NCCCCCCCn1cc(-c2cccnc2)nn1` [2′-methyl-N-(7-(4-(pyridin-3-yl)-1H-1,2,3-triazol-1-yl)heptyl)-[1,1′-biphenyl]-2-carboxamide], for which the IC50 in data set [1] was less than 0.3 µM. For the same compound, the “inhibition of the enzymatic activity of NAMPT” value in data set [2] is “able to inhibit”.
The compound `c1ccc(OCCCCCCCCn2cc(-c3cccnc3)nn2)cc1` [3-(1-(8-phenoxyoctyl)-1H-1,2,3-triazol-4-yl)pyridine] showed a melting point of 102 to 103 °C.
The compound `c1ccc(OCCCCCCn2cc(-c3cccnc3)nn2)cc1` [3-(1-(6-phenoxyhexyl)-1H-1,2,3-triazol-4-yl)pyridine] showed a melting point of 74 to 75 °C.
`O=C(NCCCCCCCCn1cc(-c2cccnc2)nn1)Nc1ccccc1-c1ccccc1` [1-([1,1′-biphenyl]-2-il)-3-(8-(4-(pyridin-3-yl)-1H-1,2,3-triazol-1-yl)octyl)urea] gave a melting point of 90 to 95 °C. Further, the IC50 in data set [1] was less than 0.3 µM.
As to `O=C(O)c1cccc(-c2ccccc2OCCCCCCn2cc(-c3cccnc3)nn2)c1` [2′-((6-(4-(pyridin-3-yl)-1H-1,2,3-triazol-1-yl)hexyl)oxy)-[1,1′-biphenyl]-3-carboxylic acid], the IC50 in data set [1] is less than 0.3 µM.
The same measure, in the same setting: next, `O=S(=O)(NCCCCCCCCn1cc(-c2cccnc2)nn1)c1ccccc1Br` [2-bromo-N-(8-(4-(pyridin-3-yl)-1H-1,2,3-triazol-1-yl)octyl)benzene sulfonamide]: less than 0.3 µM; `O=S(=O)(NCCc1ccc(Cn2cc(-c3cccnc3)nn2)cc1)c1ccccc1-c1ccccc1` [N-(4-((4-(pyridin-3-yl)-1H-1,2,3-triazol-1-yl)methyl)phenethyl)-[1,1′-biphenyl]-sulfonamide]: less than 0.3 µM; `O=S(=O)(NCCCCCCn1cc(-c2cccnc2)nn1)c1ccccc1Br` [2-bromo-N-(6-(4-(pyridin-3-yl)-1H-1,2,3-triazol-1-yl)hexyl)benzene sulfonamide]: less than 0.3 µM.
In turn, `c1ccc(-c2ccccc2-c2cn(CCCCCCCCn3cc(-c4cccnc4)nn3)nn2)cc1` [3-(1-(8-(4-([1,1′-byphenyl]-2-yl)-1H-1,2,3-triazol-1-yl)octyl)-1H-1,2,3-triazol-4-yl)pyridine] showed a melting point of 136 to 140 °C. The IC50 in data set [1] is less than 0.3 µM.
The corresponding values for `c1ccc(-c2ccccc2CNCCCCCCCn2cc(-c3cccnc3)nn2)cc1` [N-([1,1′-biphenyl]-2-ylmethyl)-7-(4-(pyridin-3-yl)-1H-1,2,3-triazol-1-yl)heptan-1-amine] are 86 to 91 °C and less than 0.3 µM.
For the compound `c1ccc(-c2ccccc2CNCCc2ccc(Cn3cc(-c4cccnc4)nn3)cc2)cc1` [N-([1,1′-biphenyl]-ylmethyl)-2-(4-((4-(pyridin-3-yl)-1H-1,2,3-triazol-1-yl)methy)phenyl)ethanamine], in data set [1], the IC50 was less than 0.3 µM.
`c1ccc(-c2ccccc2OCc2ccc(CCn3cc(-c4cccnc4)nn3)cc2)cc1` [3-(1-(4-(([1,1′-biphenyl]-2-yloxy)methyl)phenethyl)-1H-1,2,3-triazol-4-yl)pyridine] registered a melting point of 136 to 137 °C. Besides, the IC50 in data set [1] was less than 0.3 µM.
Turning to `O=S(=O)(NCCc1ccc(Cn2cc(-c3cccnc3)nn2)cc1)c1ccccc1Br` [2-bromo-N-(4-((4-(pyridin-3-yl)-1H-1,2,3-triazol-1-yl)methyl)phenethyl)benzenesulfonamide], the IC50 in data set [1] was less than 0.3 µM.
`O=C(NCCCCCCCn1cc(-c2cccnc2)nn1)c1ccccc1I` [2-iodo-N-(7-(4-(pyridin-3-yl)-1H-1,2,3-triazol-1-yl)heptyl)benzamide] yielded a melting point of 106 to 108 °C. In data set [1], the IC50 is less than 0.3 µM.
`O=S(=O)(NCCCCCCCn1cc(-c2cccnc2)nn1)c1ccccc1-c1ccccc1` [N-(7-(4-(pyridin-3-yl)-1H-1,2,3-triazol-1-yl)heptyl) biphenyl-2-sulfonamide]: in data set [1], the IC50 is less than 0.3 µM.
Same read-out and setting: as for `O=S(=O)(NCCCCCCn1cc(-c2cccnc2)nn1)c1ccccc1-c1ccccc1` [N-(6-(4-(pyridin-3-yl)-1H-1,2,3-triazol-1-yl)hexyl) biphenyl-2-sulfonamide], the figure is less than 0.3 µM.
Take `c1ccc(-c2ccccc2CNCCCCCCn2cc(-c3cccnc3)nn2)cc1` [N-([1,1′-biphenyl]-2-ylmethyl)-6-(4-(pyridin-3-yl)-1H-1,2,3-triazol-1-yl)hexan-1-amine]: the melting point lay within 55 to 58 °C. Further, in data set [1], the IC50 is less than 0.3 µM.
On to `O=C(NCCCCCCCn1cc(-c2cccnc2)nn1)c1ccccc1` [N-(7-(4-(pyridin-3-yl)-1H-1,2,3-triazol-1-yl)heptyl)benzamide], for which the melting point lay within 123 to 124 °C.
For the compound `c1ccc(-c2cn(CCCCCCn3cc(-c4cccnc4)nn3)nn2)cc1` [3-(1-(6-(4-phenyl-1H-1,2,3-triazol-1-yl)hexyl)-1H-1,2,3-triazol-4-yl)pyridine], the melting point was 172 to 173 °C.
For `Cc1ccccc1-c1ccccc1OCCCCCCn1cc(-c2cccnc2)nn1` [3-(1-(6-((2′-methyl-[1,1′-biphenyl]-2-yl)oxy)hexyl)-1H-1,2,3-triazol-4-yl)pyridine], in data set [1], the IC50 was less than 0.3 µM.
As to `O=C(Nc1ccccc1-c1ccccc1)OCCCCCCCCn1cc(-c2cccnc2)nn1` [8-(4-(pyridin-3-yl)-1H-1,2,3-triazol-1-yl)octyl[1,1′-biphenyl]-2-ylcarbamate], the melting point was 81 to 85 °C. Moreover, the IC50 in data set [1] was less than 0.3 µM.
On to `O=S(=O)(NCCCCCCCn1cc(-c2cccnc2)nn1)c1ccccc1Br` [2-bromo-N-(7-(4-(pyridin-3-yl)-1H-1,2,3-triazol-1-yl)heptyl)benzene sulfonamide], for which, in data set [1], the IC50 is less than 0.3 µM.
`c1ccc(-c2ccccc2-c2cn(CCc3ccc(Cn4cc(-c5cccnc5)nn4)cc3)nn2)cc1` [3-(1-(4-(2-(4-([1,1′-biphenyl]-2-yl)-1H-1,2,3-triazol-1-yl)ethyl)benzyl)-1H-1,2,3-triazol-4-yl)pyridine] showed a melting point of 139 to 141 °C. For the same compound, the IC50 in data set [1] was less than 0.3 µM.
`c1ccc(-c2ccccc2-c2cn(CCCCCCn3cc(-c4cccnc4)nn3)nn2)cc1` [3-(1-(6-(4-([1,1′-byphenyl]-2-yl)-1H-1,2,3-triazol-1-yl)hexyl)-1H-1,2,3-triazol-4-yl)pyridine] had a melting point of 139 to 140 °C. Besides, the IC50 in data set [1] is less than 0.3 µM.
Take `c1ccc(-c2ccccc2CNCCCCCCCCn2cc(-c3cccnc3)nn2)cc1` [N-([1,1′-biphenyl]-2-ylmethyl)-8-(4-(pyridin-3-yl)-1H-1,2,3-triazol-1-yl)octan-1-amine]: in data set [1], the IC50 is less than 0.3 µM.
The compound `O=C(NCCCc1ccc(-n2cc(-c3cccnc3)nn2)cc1)c1ccccc1-c1ccccc1` [N-(3-(4-(4-(pyridin-3-yl)-1H-1,2,3-triazol-1-yl)phenyl)propyl)-[1,1′-biphenyl]-2-carboxamide] came in with a melting point of 202 to 203 °C. Moreover, the IC50 in data set [1] is less than 0.3 µM.
`c1ccc(-c2cn(CCCCCCCn3cc(-c4cccnc4)nn3)nn2)cc1` [3-(1-(7-(4-phenyl-1H-1,2,3-triazol-1-yl)heptyl)-1H-1,2,3-triazol-4-yl)pyridine]: the melting point was 143 to 144 °C.
The compound `O=C(NCc1ccc(CCn2cc(-c3cccnc3)nn2)cc1)c1ccccc1-c1ccccc1` [N-(4-(2-(4-(pyridin-3-yl)-1H-1,2,3-triazol-1-yl)ethyl)benzyl)-[1,1′-biphenyl]-2-carboxamide] had a melting point of 204 to 205 °C. Moreover, the IC50 in data set [1] is less than 0.3 µM.
`c1ccc(OCCCCCCCn2cc(-c3cccnc3)nn2)cc1` [3-(1-(7-phenoxyheptyl)-1H-1,2,3-triazol-4-yl)pyridine] displayed a melting point of 90.5 to 91 °C.
With `O=C(O)c1ccc(-c2ccccc2OCCCCCCn2cc(-c3cccnc3)nn2)cc1` [2′-((6-(4-(pyridin-3-yl)-1H-1,2,3-triazol-1-yl)hexyl)oxy)-[1,1′-biphenyl]-4-carboxylic acid], the IC50 in data set [1] was less than 0.3 µM.
With `O=C(O)c1ccc(-c2ccccc2C(=O)NCCCCCCCn2cc(-c3cccnc3)nn2)cc1` [2′-((7-(4-(pyridin-3-yl)-1H-1,2,3-triazol-1-yl)heptyl)carbamoyl)-[1,1′-biphenyl]-4-carboxylic acid], the IC50 in data set [1] is less than 0.3 µM.

Broadly, the melting point is the temperature of the solid-liquid transition.
